From patent US10316017B2, “COT modulators and methods of use thereof” (Gilead Sciences, Inc., priority 2015, dated 2019)

Assays:
[1] = system: TNFα production in LPS-stimulated human monocytes; experiment: Cot Monocyte TNFα Cell Based Assay; conditions: Homo sapiens, Monocyte, TNFα in LPS-stimulated human monocytes; read-out: EC50 TNF
Procedure, shortened: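 5,000 cells/well; cmpd 1 h, 37 °C, 0.5% DMSO final; LPS 50 pg/ml, 4 h, 37 °C; media TNFα by HTRF sandwich (cryptate/XL665), RT overnight; % control vs unstimulated/stimulated wells.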

[2] = target: T1, human Cot catalytic domain (30-397 amino acids) (Homo sapiens, UniProt P41279); experiment: High Throughput Cot Biochemical Assay (KinEASE TR-FRET); conditions: Cot biochemical HTRF (KinEASE TR-FRET) assay; read-out: IC50 HTRF
T1 construct: Purified recombinant human Cot catalytic domain (30-397 amino acids) was purchased from Cama Biosciences; purchased Cama Biosciences (so in the source)
Procedure, shortened: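 First, purified human Cot (aa 30-397) at 5 nM phosphorylates an XL665-labeled STK3 peptide (1 μM) at 400 μM ATP, pH 7.0, 0.1% DMSO. Then a europium-conjugated phospho-specific antibody binds the product, giving the TR-FRET signal.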

T1 sequence (P41279 30-397): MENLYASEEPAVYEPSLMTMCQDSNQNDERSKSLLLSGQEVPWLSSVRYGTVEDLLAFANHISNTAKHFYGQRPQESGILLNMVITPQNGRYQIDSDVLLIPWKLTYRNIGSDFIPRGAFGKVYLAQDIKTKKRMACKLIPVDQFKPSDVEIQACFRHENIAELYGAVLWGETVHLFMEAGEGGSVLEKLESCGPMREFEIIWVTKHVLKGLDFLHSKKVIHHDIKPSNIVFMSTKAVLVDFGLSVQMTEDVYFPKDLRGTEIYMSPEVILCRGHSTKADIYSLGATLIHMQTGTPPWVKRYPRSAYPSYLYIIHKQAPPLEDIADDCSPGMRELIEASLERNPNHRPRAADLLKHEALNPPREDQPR

SMILES | EC50 [1] [µM] | IC50 [2] [µM]
CC(C)(C)N1CCC(n2cc([C@@H](Nc3cc(Cl)c4ncc(C#N)c(Nc5ccc(F)c(Cl)c5)c4c3)c3cccc(C(=O)N4CC(O)C4)c3)nn2)CC1 [Example 594, (S)-6-(((1-(1-(tert-butyl)piperidin-4-yl)-1H-1,2,3-triazol-4-yl)(3-(3-hydroxyazetidine-1-carbonyl)phenyl)methyl)amino)-8-chloro-4-((3-chloro-4-fluorophenyl)amino)quinoline-3-carbonitrile] | 1.72 | 0.001
CN(C)c1cccc([C@H](Nc2cc(Cl)c3ncc(C#N)c(Nc4ccc(F)c(Cl)c4)c3c2)c2cn(C3CCN(C(C)(C)C)CC3)nn2)c1 [Example 595, (S)-6-(((1-(1-(tert-butyl)piperidin-4-yl)-1H-1,2,3-triazol-4-yl)(3-(dimethylamino)phenyl)methyl)amino)-8-chloro-4-((3-chloro-4-fluorophenyl)amino)quinoline-3-carbonitrile] | 0.305 | 0.008
CC(C)(C)N1CCC(n2cc([C@@H](Nc3cc(Cl)c4ncc(C#N)c(NC5CC6CCC5C6)c4c3)c3ccccc3)nn2)CC1 (stereo partly drawn) [Example 596, 4-(bicyclo[2.2.1]heptan-2-ylamino)-6-(((S)-(1-(1-(tert-butyl)piperidin-4-yl)-1H-1,2,3-triazol-4-yl)(phenyl)methyl)amino)-8-chloroquinoline-3-carbonitrile] | 3.05 | 0.033
CC(C)(C)N1CCC(n2cc(C(Nc3cc(Cl)c4ncc(C#N)c(NC5CCC(O)CC5)c4c3)c3ccccc3)nn2)CC1 [Example 597, 6-(((S)-(1-(1-(tert-butyl)piperidin-4-yl)-1H-1,2,3-triazol-4-yl)(phenyl)methyl)amino)-8-chloro-4-(((1r,4S)-4-hydroxycyclohexyl)amino) quinoline-3-carbonitrile] | 3.18 | 0.189
CC[C@@H](Nc1c(C#N)cnc2c(Cl)cc(N[C@@H](c3cccc(C(=O)N(C)C)c3)c3c[nH]nn3)cc12)c1ccccc1 [Example 598, 3-((S)-((8-chloro-3-cyano-4-(((R)-1-phenylpropyl)amino)quinolin-6-yl)amino)(1H-1,2,3-triazol-4-yl)methyl)-N,N-dimethylbenzamide] | 0.418 | 0.004
CC[C@@H](Nc1c(C#N)cnc2c(Cl)cc(N[C@@H](c3cccc(C(=O)N(C)C)c3)c3cn(C(C)C)nn3)cc12)c1ccccc1 [Example 599, 3-((S)-((8-chloro-3-cyano-4-(((R)-1-phenylpropyl)amino)quinolin-6-yl)amino)(1-isopropyl-1H-1,2,3-triazol-4-yl)methyl)-N,N-dimethylbenzamide] | 0.134 | 0.003
CC[C@@H](Nc1c(C#N)cnc2c(Cl)cc(N[C@@H](c3cccc(C(=O)N(C)C)c3)c3cn(C4CCN(C(C)(C)C)CC4)nn3)cc12)c1ccccc1 [Example 600, 3-((S)-(1-(1-(tert-butyl)piperidin-4-yl)-1H-1,2,3-triazol-4-yl)((8-chloro-3-cyano-4-(((R)-1-phenylpropyl)amino)quinolin-6-yl)amino)methyl)-N,N-dimethylbenzamide] | 0.078 | 0.002
CC(C)(C)N1CCC(n2cc([C@@H](Nc3cc(Cl)c4ncc(C#N)c(NCC5CCOCC5)c4c3)c3ccccc3)nn2)CC1 [Example 601, (S)-6-(((1-(1-(tert-butyl)piperidin-4-yl)-1H-1,2,3-triazol-4-yl)(phenyl)methyl)amino)-8-chloro-4-(((tetrahydro-2H-pyran-4-yl)methyl)amino)quinoline-3-carbonitrile] | 2.06 | 0.064
CC(C)(C)N1CCC(n2cc([C@@H](Nc3cc(Cl)c4ncc(C#N)c(NCC5CCCCC5)c4c3)c3ccccc3)nn2)CC1 [Example 602, (S)-6-(((1-(1-(tert-butyl)piperidin-4-yl)-1H-1,2,3-triazol-4-yl)(phenyl)methyl)amino)-8-chloro-4-chloro-4-((cyclohexylmethyl)amino) quinoline-3-carbonitrile] | 3.05 | 0.077
CC(C)(C)N1CCC(n2cc([C@@H](Nc3cc(Cl)c4ncc(C#N)c(NN5CCCCC5)c4c3)c3ccccc3)nn2)CC1 [Example 603, (S)-6-(((1-(1-(tert-butyl)piperidin-4-yl)-1H-1,2,3-triazol-4-yl)(phenyl)methyl)amino)-8-chloro-4-(piperidin-1-ylamino)quinoline-3-carbonitrile] | 0.561 | 0.061
CC(C)(C)N1CCC(n2cc([C@@H](Nc3cc(Cl)c4ncc(C#N)c(NN5CCCCCC5)c4c3)c3ccccc3)nn2)CC1 [Example 604, (S)-4-(azepan-1-ylamino)-6-(((1-(1-(tert-butyl)piperidin-4-yl)-1H-1,2,3-triazol-4-yl)(phenyl)methyl)amino)-8-chloroquinoline-3-carbonitrile] | 3.04 | 0.156
N#Cc1cnc2c(Cl)cc(N[C@@H](c3ccccc3)c3cn(CC(O)C(F)(F)F)nn3)cc2c1Nc1ccc(F)c(Cl)c1 (stereo partly drawn) [Example 605, 8-chloro-4-((3-chloro-4-fluorophenyl)amino)-6-(((1S)-phenyl(1-(3,3,3-trifluoro-2-hydroxypropyl)-1H-1,2,3-triazol-4-yl)methyl)amino)quinoline-3-carbonitrile] | 0.375 | 0.041
CN(C)C(=O)c1cccc([C@H](Nc2cc(Cl)c3ncc(C#N)c(Nc4cccc(Cl)c4F)c3c2)c2c[nH]nn2)c1 [Example 606, (S)-3-(((8-chloro-4-((3-chloro-2-fluorophenyl)amino)-3-cyanoquinolin-6-yl)amino)(1H-1,2,3-triazol-4-yl)methyl)-N,N-dimethylbenzamide] | 0.348 | 0.002
CC(C)n1cc([C@@H](Nc2cc(Cl)c3ncc(C#N)c(Nc4cccc(Cl)c4F)c3c2)c2cccc(C(=O)N(C)C)c2)nn1 [Example 607, (S)-3-(((8-chloro-4-((3-chloro-2-fluorophenyl)amino)-3-cyanoquinolin-6-yl)amino)(1-isopropyl-1H-1,2,3-triazol-4-yl)methyl)-N,N-dimethylbenzamide] | 0.198 | 0.002
CN(C)C(=O)c1cccc([C@H](Nc2cc(Cl)c3ncc(C#N)c(Nc4cccc(Cl)c4F)c3c2)c2cn(C3CCN(C(C)(C)C)CC3)nn2)c1 [Example 608, (S)-3-((1-(1-(tert-butyl)piperidin-4-yl)-1H-1,2,3-triazol-4-yl)((8-chloro-4-((3-chloro-2-fluorophenyl)amino)-3-cyanoquinolin-6-yl)amino)methyl)-N,N-dimethylbenzamide] | 0.041 | 0.001
N#Cc1cnc2c(Cl)cc(N[C@@H](c3ccccc3)c3cn(C4CC4)nn3)cc2c1Nc1ccc(F)c(Cl)c1 [Example 609, (S)-8-chloro-4-((3-chloro-4-fluorophenyl)amino)-6-(((1-cyclopropyl-1H-1,2,3-triazol-4-yl)(phenyl)methyl)amino) quinoline-3-carbonitrile] | 0.384 | 0.007
CC(C)(O)Cn1cc([C@@H](Nc2cc(Cl)c3ncc(C#N)c(Nc4ccc(F)c(Cl)c4)c3c2)c2ccccc2)nn1 [Example 610, (S)-8-chloro-4-((3-chloro-4-fluorophenyl)amino)-6-(((1-(2-hydroxy-2-methylpropyl)-1H-1,2,3-triazol-4-yl)(phenyl)methyl)amino) quinoline-3-carbonitrile] | 0.337 | 0.014
